Like-named read-outs stand apart in the source and are kept apart here.
What was measured:
Assay type in all cases: cell-based, human
H2030 = assay: Non Small Cell Lung Cancer proliferation assay (Alamar Blue reduction), H2030; conditions: Homo sapiens, NCI-H2030, primary screening, 10 μM compound in 1% DMSO (v/v)
How it was run: (§1)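 Compounds are tested at 1% DMSO final concentration against adherent NSCLC cells for 48 h at 37° C, with cytotoxicity measured by Alamar Blue reduction after a further 48 h incubation.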

H1650 = assay: Non Small Cell Lung Cancer proliferation assay (Alamar Blue reduction), H1650; conditions: Homo sapiens, NCI-H1650, primary screening, 10 μM compound in 1% DMSO (v/v)
How it was run: as §1

H3255 = assay: Non Small Cell Lung Cancer proliferation assay (Alamar Blue reduction), H3255; conditions: Homo sapiens, NCI-H3255, primary screening, 10 μM compound in 1% DMSO (v/v)
How it was run: as §1

H1975 = assay: Non Small Cell Lung Cancer proliferation assay (Alamar Blue reduction), H1975; conditions: Homo sapiens, NCI-H1975, primary screening, 10 μM compound in 1% DMSO (v/v)
How it was run: as §1

[1] = read-out: percentage inhibition H2030
[2] = read-out: percentage inhibition H1650
[3] = read-out: percentage inhibition H3255
[4] = read-out: percentage inhibition H1975
[5] = H2030, read-out: PRIMARY HTS [%] H2030 (percentage inhibition)
[6] = H1650, read-out: PRIMARY HTS [%] H1650 (percentage inhibition)
[7] = H3255, read-out: PRIMARY HTS [%] H3255 (percentage inhibition)
[8] = H1975, read-out: PRIMARY HTS [%] H1975 (percentage inhibition)

SMILES | inhibition at 10 µM (H2030; [1]) [%] | inhibition at 10 µM (H1650; [2]) [%] | inhibition at 10 µM (H3255; [3]) [%] | inhibition at 10 µM (H1975; [4]) [%] | inhibition at 10 µM (H2030; [5]) [%] | inhibition at 10 µM (H1650; [6]) [%] | inhibition at 10 µM (H3255; [7]) [%] | inhibition at 10 µM (H1975; [8]) [%]
O=c1c(SCc2ccccc2)c(Cl)cnn1-c1ccccc1 [compound 182827] | -6 | -20 | -24 | 14 | – | – | – | –
O=c1c(SCc2ccc(Cl)cc2)c(SCc2ccccc2)cnn1-c1ccccc1 [compound 208704] | -15 | -10 | -23 | -6 | – | – | – | –
O=c1c(Cl)c(SC(c2ccccc2)c2ccccc2)cnn1-c1ccccc1 [compound 208697] | 4 | -3 | 31 | -16 | – | – | – | –
O=c1c(SCc2ccccc2)c(SCc2ccccc2)cnn1-c1ccc(Br)cc1 [compound 208699] | 10 | -12 | 19 | -22 | – | – | – | –
O=C(Nc1ccc(Cl)cc1)c1ccco1 [compound 78158] | – | – | – | – | 6 | 20 | 4 | -2
Cc1cccc(-n2nc(C(=O)c3ccco3)cc(-c3nc4ccccc4[nH]3)c2=N)c1 [compound 181802] | -5 | -2 | 27 | 14 | – | – | – | –
O=C(COCCOc1cnn(-c2ccccc2)c(=O)c1Cl)c1ccccc1 [compound 199760] | 21 | 12 | 6 | -22 | – | – | – | –
O=C(Nc1cc(C(F)(F)F)ccc1Cl)c1ccc([N+](=O)[O-])o1 [compound 104039] | – | – | – | – | 13 | 61 | 6 | 69
O=C(COc1cnn(-c2ccccc2)c(=O)c1Cl)c1ccc(Br)cc1 [compound 176702] | -14 | 29 | -21 | 26 | – | – | – | –
O=c1c(SCc2ccccc2)c(SCc2ccc(Cl)cc2)cnn1-c1ccccc1 [compound 208705] | 10 | -4 | 0 | -20 | – | – | – | –
COc1cnn(-c2ccccc2)c(=O)c1Cl [compound 104386] | 6 | -12 | 0 | -11 | – | – | – | –
COc1c(Cl)cnn(-c2cccc(C)c2)c1=O [compound 104415] | -3 | -20 | 9 | 15 | – | – | – | –
O=C(Nc1ccc(Cl)cc1F)c1ccco1 [compound 66598] | – | – | – | – | 0 | 8 | 1 | 8
O=C(Nc1ccccc1C(=O)NCc1ccc(Cl)cc1)c1ccco1 [compound 88935] | – | – | – | – | -1 | -4 | -2 | -10
O=[N+]([O-])c1ccc(CN2CCN(Cc3ccccc3)CC2)o1 [compound 100507] | – | – | – | – | 7 | -3 | 1 | -15
O=[N+]([O-])c1ccc(CN2CCN(c3ccccc3F)CC2)o1 [compound 100792] | – | – | – | – | 43 | -5 | 1 | -9
O=C(Nc1c(Cl)cccc1Cl)c1cc2ccccc2o1 [compound 60998] | – | – | – | – | 1 | 10 | 1 | 19
O=c1c(Cl)c(Cl)c(Cl)nn1-c1ccc(Br)cc1 [compound 202245] | -8 | 48 | 71 | 96 | – | – | – | –
Cc1ccc(C(=O)Nc2ccc3ccccc3c2)o1 [compound 105503] | – | – | – | – | -7 | -10 | 0 | -13
O=C(Nc1ccc(N2CCN(C(=O)c3ccco3)CC2)cc1)c1ccco1 [compound 97253] | – | – | – | – | -5 | -2 | -3 | -15
N=c1c(-c2nc3ccccc3[nH]2)cc(C(=O)c2cccs2)nn1-c1ccccc1 [compound 186924] | 1 | 7 | 8 | 14 | – | – | – | –
